Read-outs that look alike come from different tables or passages of the source.
Tests used:
[1] = target: T1, GLP (Homo sapiens, UniProt Q9H9B1); test: human MTase selectivity panel; assay type: biochemical
T1 sequence (Q9H9B1 1-1298): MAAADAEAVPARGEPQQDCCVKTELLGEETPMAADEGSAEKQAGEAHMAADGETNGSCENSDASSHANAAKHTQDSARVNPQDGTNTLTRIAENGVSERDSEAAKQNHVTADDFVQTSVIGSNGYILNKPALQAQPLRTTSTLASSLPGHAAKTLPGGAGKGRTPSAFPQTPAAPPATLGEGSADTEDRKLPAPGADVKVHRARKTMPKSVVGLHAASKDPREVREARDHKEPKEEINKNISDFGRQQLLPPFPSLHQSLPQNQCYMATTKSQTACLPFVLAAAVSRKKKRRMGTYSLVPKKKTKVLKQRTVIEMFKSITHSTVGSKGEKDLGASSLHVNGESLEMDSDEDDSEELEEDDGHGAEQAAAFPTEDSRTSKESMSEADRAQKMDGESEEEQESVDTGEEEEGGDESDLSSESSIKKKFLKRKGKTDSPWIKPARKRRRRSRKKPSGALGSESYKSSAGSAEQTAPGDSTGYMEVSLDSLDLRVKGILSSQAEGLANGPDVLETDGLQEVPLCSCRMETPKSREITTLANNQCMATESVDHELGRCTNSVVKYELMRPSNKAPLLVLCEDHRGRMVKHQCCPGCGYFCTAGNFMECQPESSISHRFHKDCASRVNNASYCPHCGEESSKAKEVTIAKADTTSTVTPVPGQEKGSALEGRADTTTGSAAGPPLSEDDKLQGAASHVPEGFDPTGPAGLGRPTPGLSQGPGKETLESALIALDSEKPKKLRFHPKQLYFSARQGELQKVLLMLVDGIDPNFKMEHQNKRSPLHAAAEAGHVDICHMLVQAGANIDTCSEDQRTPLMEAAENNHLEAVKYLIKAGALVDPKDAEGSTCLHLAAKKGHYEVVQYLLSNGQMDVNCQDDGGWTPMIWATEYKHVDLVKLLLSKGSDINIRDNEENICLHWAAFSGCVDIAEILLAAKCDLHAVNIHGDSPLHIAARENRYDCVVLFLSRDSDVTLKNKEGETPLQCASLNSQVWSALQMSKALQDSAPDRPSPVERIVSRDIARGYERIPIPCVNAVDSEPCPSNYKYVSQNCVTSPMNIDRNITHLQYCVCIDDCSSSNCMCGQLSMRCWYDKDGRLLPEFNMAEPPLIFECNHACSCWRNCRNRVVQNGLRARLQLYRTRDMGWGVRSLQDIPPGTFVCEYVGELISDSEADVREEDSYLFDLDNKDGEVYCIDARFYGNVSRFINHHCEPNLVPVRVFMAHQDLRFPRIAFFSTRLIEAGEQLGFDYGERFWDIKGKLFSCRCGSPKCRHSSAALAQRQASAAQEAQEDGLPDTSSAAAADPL

[2] = target: T2, NSD2 (Homo sapiens, UniProt O96028); test: human MTase selectivity panel; assay type: biochemical
T2 sequence (O96028 1-1365): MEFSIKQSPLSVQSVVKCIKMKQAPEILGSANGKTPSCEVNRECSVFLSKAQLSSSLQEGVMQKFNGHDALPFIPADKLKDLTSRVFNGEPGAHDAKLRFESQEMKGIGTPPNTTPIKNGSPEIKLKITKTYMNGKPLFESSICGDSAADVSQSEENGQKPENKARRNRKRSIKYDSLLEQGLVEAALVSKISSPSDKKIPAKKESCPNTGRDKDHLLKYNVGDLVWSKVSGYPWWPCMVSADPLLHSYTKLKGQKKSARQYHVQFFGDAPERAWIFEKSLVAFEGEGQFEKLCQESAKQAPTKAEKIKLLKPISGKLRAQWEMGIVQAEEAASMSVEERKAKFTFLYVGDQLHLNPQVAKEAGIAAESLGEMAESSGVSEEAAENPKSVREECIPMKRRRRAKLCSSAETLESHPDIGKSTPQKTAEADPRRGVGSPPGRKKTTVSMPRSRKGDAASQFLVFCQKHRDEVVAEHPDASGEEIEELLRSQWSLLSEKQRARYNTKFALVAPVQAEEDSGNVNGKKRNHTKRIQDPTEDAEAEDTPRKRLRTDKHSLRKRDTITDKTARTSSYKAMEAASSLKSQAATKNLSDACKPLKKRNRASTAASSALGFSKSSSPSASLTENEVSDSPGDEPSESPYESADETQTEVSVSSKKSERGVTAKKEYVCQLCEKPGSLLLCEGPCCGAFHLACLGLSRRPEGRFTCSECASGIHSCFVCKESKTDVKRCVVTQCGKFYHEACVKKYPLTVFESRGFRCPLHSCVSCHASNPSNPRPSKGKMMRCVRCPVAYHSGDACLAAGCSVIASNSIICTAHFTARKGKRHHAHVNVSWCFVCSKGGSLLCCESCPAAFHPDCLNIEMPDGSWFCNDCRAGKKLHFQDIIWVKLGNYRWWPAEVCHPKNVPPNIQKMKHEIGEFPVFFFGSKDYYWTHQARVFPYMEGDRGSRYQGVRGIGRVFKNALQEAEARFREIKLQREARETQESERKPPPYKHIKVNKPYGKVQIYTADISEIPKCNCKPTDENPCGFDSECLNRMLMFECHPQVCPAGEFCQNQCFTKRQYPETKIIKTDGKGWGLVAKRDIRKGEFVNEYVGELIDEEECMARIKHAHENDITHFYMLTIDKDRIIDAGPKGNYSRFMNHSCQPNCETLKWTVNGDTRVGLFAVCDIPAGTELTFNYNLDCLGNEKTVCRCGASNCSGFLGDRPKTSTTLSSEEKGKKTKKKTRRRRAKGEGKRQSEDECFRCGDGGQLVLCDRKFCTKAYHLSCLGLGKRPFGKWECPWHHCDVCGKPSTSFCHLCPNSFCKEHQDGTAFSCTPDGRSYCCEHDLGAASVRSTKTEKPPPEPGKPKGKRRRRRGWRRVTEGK

[3] = target: nsp14 (Severe acute respiratory syndrome coronavirus 2, UniProt P0DTD1); test: surface plasmon resonance (SPR) binding to immobilized full-length biotinylated nsp14; set-up: species or system SARS-CoV-2; details: n = 3
Procedure: For Surface Plasmon Resonance (SPR), the full-length biotinylated nsp14 was immobilized on the flow cell of a SA sensor chip in 1x HBS-EP buffer, achieving a response of 8000 RU. The assay was performed using the same buffer but with 2% DMSO added. Single-cycle kinetics were employed with a contact time of 60 seconds and a dissociation time of 120 seconds, at a flow rate of 75 µL/min. NSC620333 was tested at a concentration of 10 µM as the highest concentration, and a dilution factor of 0.25 was used to yield five different concentrations.

[4] = average ± SD, read-out: Activity (%) at 10 µM Average
[5] = read-out: Activity (%) at 10 µM Replicate 1
[6] = read-out: Activity (%) at 10 µM Replicate 2
[7] = read-out: Activity (%) at 10 µM Replicate 3

Nc1ncnc2c1ncn2[C@@H]1O[C@H](CSCc2ccc(Cl)cc2)[C@@H](O)[C@H]1O [NSC620333]
activity at 10 µM [1, 4]: 100 ± 5%
activity at 10 µM [1, 5]: 95%
activity at 10 µM [1, 6]: 105%
activity at 10 µM [1, 7]: 101%
activity at 10 µM [2, 4]: 92 ± 7%
activity at 10 µM [2, 5]: 100%
activity at 10 µM [2, 6]: 86%
activity at 10 µM [2, 7]: 90%
Kd ([3]; SPR single-cycle kinetics, read-out: KD (kinetic fitting)): 427 ± 84 nM
Kd ([3]; SPR steady-state 1:1 binding model, read-out: steady-state KD): 544 ± 22 nM
